Where two headings read alike, the source gives them in different places.
How the values were obtained:
[1] = biological target: IMP-1 (Serratia marcescens, UniProt P52699); experiment: biochemical; assay type: biochemical
Procedure, shortened: (§1)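 Class B activity is measured in the presence of compound by fluorescence with CCF2-FA after a 2-hour incubation at 25° C. IC50 is taken from a 4-parameter fit of semi-logarithmic dose-response data.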

[2] = biological target: NDM-1 (Klebsiella pneumoniae, UniProt C7C422); experiment: biochemical; assay type: biochemical; details: CCF2-FA substrate, 2 hours at 25° C; read-out: NDM-1 IC50
Sequence of NDM-1 (C7C422 whole entry, looked up, species assumed): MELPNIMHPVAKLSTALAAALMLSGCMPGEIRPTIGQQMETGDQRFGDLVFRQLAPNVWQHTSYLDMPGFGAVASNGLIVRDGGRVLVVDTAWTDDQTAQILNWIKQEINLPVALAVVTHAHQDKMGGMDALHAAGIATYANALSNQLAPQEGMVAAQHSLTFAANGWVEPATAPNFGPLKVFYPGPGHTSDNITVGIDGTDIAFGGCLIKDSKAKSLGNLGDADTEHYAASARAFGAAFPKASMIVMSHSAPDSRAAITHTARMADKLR
Procedure, shortened: as §1

[3] = biological target: VIM-1 (Pseudomonas aeruginosa (strain ATCC 15692 / DSM 22644 / CIP 104116 / JCM 14847 / LMG 12228 / 1C / PRS 101 / PAO1), UniProt A0A0F7KYQ8); experiment: biochemical; details: CCF2-FA substrate, 2 hours at 25° C
Procedure, shortened: as §1

[4] = test system: Escherichia coli expressing NDM-1 (CLB30005, CLB30016); assay type: cell-based; details: with imipenem 1 μg/ml; 95% inhibition of bacterial growth
Procedure, shortened: (§2)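 Clinical strains grown overnight on blood agar, then diluted 1:100 in 1.1× CAMHB and exposed to test compound with imipenem at 1 μg/ml. Incubation was 22–24 h at 35° C; growth was read by absorbance to find the compound concentration restoring imipenem susceptibility.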

[5] = test system: Klebsiella pneumoniae expressing VIM-1 (IHMA599644); assay type: cell-based; details: with imipenem 1 μg/ml; 95% inhibition of bacterial growth
Procedure, shortened: as §2

[6] = test system: Serratia marcescens expressing IMP-1 (CL5741); assay type: cell-based; details: with imipenem 1 μg/ml; 95% inhibition of bacterial growth
Procedure, shortened: as §2

[7] = test system: P. aeruginosa expressing IMP-1, efflux+ (MB9798); assay type: cell-based, Pseudomonas aeruginosa; details: for P. aeruginosa expressing IMP-1, efflux+ (MB9798) MITC95: imipenem at 2 μg/mL, in the presence of a class A, C, D serine β-lactamase inhibitor closely related to relebactam; for Efflux ratio: ratio MITC95 PA_9798/MITC95 PA_9799
From the text: (§3) The strain background is Pseudomonas aeruginosa PAO1.

[8] = test system: P. aeruginosa expressing IMP-1, efflux− (MB9799); experiment: Efflux: concentration of MBL inhibitor which restores susceptibility to imipenem; assay type: cell-based, Pseudomonas aeruginosa; details: imipenem at 2 μg/mL, in the presence of a class A, C, D serine β-lactamase inhibitor closely related to relebactam
From the text: as §3

[9] = CCF2-FA substrate, 2 hours at 25° C, read-out: IMP-1 IC50

Sequence of IMP-1 (P52699 whole entry, looked up, species assumed): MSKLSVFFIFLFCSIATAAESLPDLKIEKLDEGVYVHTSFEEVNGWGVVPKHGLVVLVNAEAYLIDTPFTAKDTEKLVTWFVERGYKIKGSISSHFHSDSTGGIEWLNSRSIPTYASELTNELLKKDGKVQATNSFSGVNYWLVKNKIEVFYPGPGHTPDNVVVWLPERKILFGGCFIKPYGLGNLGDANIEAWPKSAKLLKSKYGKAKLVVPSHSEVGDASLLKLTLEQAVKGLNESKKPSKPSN

| SMILES | IC50 [1] [nM] | IC50 [2] [nM] | IC50 [3] [nM] | Escherichia coli expressing NDM-1 (CLB30016) MITC95 [4] [µM] | Klebsiella pneumoniae expressing VIM-1 (IHMA599644) MITC95 [5] [µM] | Serratia marcescens expressing IMP-1 (CL5741) MITC95 [6] [µM] | P. aeruginosa expressing IMP-1, efflux+ (MB9798) MITC95 [7] [µM] | Efflux ratio [7] | P. aeruginosa expressing IMP-1, efflux− (MB9799) MITC95 [8] [µM] | IC50 [1, 9] [nM] |
| --- | --- | --- | --- | --- | --- | --- | --- | --- | --- | --- |
| NCCS(=O)(=O)c1ccc(-c2cccc3nc(N)oc23)c(-c2nn[nH]n2)c1S(N)(=O)=O [Example 74, 3-(2-aminobenzo[d]oxazol-7-yl)-6-(2-aminoethylsulfonyl)-2-(2H-tetrazol-5-yl)benzenesulfonamide] | 0.989 | 0.096 | 0.172 | 0.7813 | 3.125 | 1.563 | 3.125 | 4.00 | 0.7813 | – |
| NCCS(=O)(=O)c1ccc(-c2ccc3nc(N)oc3c2)c(-c2nn[nH]n2)c1S(N)(=O)=O [Example 75, 3-(2-aminobenzo[d]oxazol-6-yl)-6-(2-aminoethylsulfonyl)-2-(2H-tetrazol-5-yl)benzenesulfonamide] | – | 0.5 | 0.283 | 1.563 | 1.563 | 1.563 | 6.25 | 8.00 | 0.7813 | 0.433 |
| NCCS(=O)(=O)c1ccc(-c2cccc3oc(N)nc23)c(-c2nn[nH]n2)c1S(N)(=O)=O [Example 76, 3-(2-aminobenzo[d]oxazol-4-yl)-6-(2-aminoethylsulfonyl)-2-(2H-tetrazol-5-yl)benzenesulfonamide] | 0.258 | 0.148 | 0.24 | 0.7813 | 1.563 | 0.7813 | 0.7813 | 1.00 | 0.7813 | – |
| NCCS(=O)(=O)c1ccc(-c2ccc3oc(N)nc3c2)c(-c2nn[nH]n2)c1S(N)(=O)=O [Example 77, 3-(2-aminobenzo[d]oxazol-5-yl)-6-(2-aminoethylsulfonyl)-2-(2H-tetrazol-5-yl)benzenesulfonamide] | – | 1.05 | 0.385 | 0.7813 | 1.563 | 1.563 | 6.25 | 8.00 | 0.7813 | 1.13 |
| NCCS(=O)(=O)c1ccc(-c2cccc3nc(N)sc23)c(-c2nn[nH]n2)c1S(N)(=O)=O [Example 78, 3-(2-aminobenzo[d]thiazol-7-yl)-6-(2-aminoethylsulfonyl)-2-(2H-tetrazol-5-yl)benzenesulfonamide] | – | 0.0576 | 0.136 | 0.7813 | 2.344 | 1.172 | 1.172 | 1.50 | 0.7813 | 0.441 |
| Cn1c(N)nc2c(-c3ccc(S(=O)(=O)CCN)c(S(N)(=O)=O)c3-c3nn[nH]n3)cccc21 [Example 79, 3-(2-amino-1-methyl-1H-benzo[d]imidazol-4-yl)-6-(2-aminoethylsulfonyl)-2-(2H-tetrazol-5-yl)benzenesulfonamide] | 0.241 | 0.354 | 0.327 | 0.25 | 1.281 | 0.8906 | 0.8906 | 1.39 | 0.6406 | – |

From US10227331B2 (priority 2015, dated 2019)
